The values that follow come from patent US20060099712A1, “Correlation of anti-cancer activity of dyes with redox potentials” (Eastman Kodak Company, priority 2004, published 2006).

The assay relates to CX-1 Human Colon Carcinoma. Kind of assay: Clonogenic dye screening assay, CX-1 cells (IC50). The following applies: for CX: CX-1 cells; for CV/C: selectivity ratio, value of 1 where dye inactive; for CX (IC50 in the CX-1 cell line): 3 hrs treatment, colonies after 7-10 days, unit from method b117-118; for CV/CX (selectivity, kill ratio): ratio of IC50 in normal CV-1 line to IC50 in carcinoma CX-1 line. The assay is classed as cell-based. Further details: CX: unit not given here. The source says:
CX-1 is a cancerous human colon adenocarcinoma cell line. CV-1 is a non-cancerous control, which is a kidney epithelial cell line from an African green monkey. IC50 is the dye concentration at which 50% of the cells are killed. Selectivity or kill ratio is defined as the ratio of […] at IC50 for both CX-1 and CV-1. A ratio with a high number indicates a high selectivity.
The dyes were screened in two cell lines. CX-1 is a human colon adenocarcinoma cell line. CV-1 is a kidney epithelial cell line from an African green monkey. CV-1 was used as a reference because no normal human epithelial cell line is available for clonogenic assay.
In the initial screen, dyes were examined at six different concentrations to generate a dose response curve. An IC50 value, the concentration at which 50% of the cells are killed, was then calculated. Initially, a dye concentration of 1.0 μg/mL was the highest examined for the CX-1 cell line and 0.005 μg/mL was the lower limit. The corresponding limits on the CV-1 cell line were […].
The screening procedure used a response curve that was determined from eight dye concentrations. The upper and lower limits of CX-1 were 0.32 and 0.0015 μg/mL, respectively, and the corresponding revised limits on CV-1 were 3.2 and 0.025 μg/mL. The screening results were reported by assigning an IC50 value to each dye for the CV-1 and CX-1 cell lines. These values will be referred to herein simply as CV and CX. The most desirable result would be to have a dye that was highly toxic to carcinoma cells but nontoxic to ‘normal’ cells. One measure of this type of selectivity is the ratio of the IC50's in the normal cell line to that in the carcinoma line, CV/CX.
Compounds are screened via an in vitro assay. CV-1 and CX-1 cells are seeded into separate assay plates. The plates are treated with varying concentrations of test compounds, rinsed, and colonies allowed to grow. IC50's are determined and drugs evaluated based on their selectivity and toxicity. Assay Steps: • I. Seeding Cells • II. Weighing • III. Preparation of Solution • IV. Treatment • V. Rinsing and Feeding • VI. Fixing • VII. IC50 Determination I. Seeding Cells
The cells should be seeded 16-30 hours before treatment. The media for CV-1 cells is DME+5% calf serum +5% Nuserum. The media for CX-1 cells is RPMI/DME (50/50)+5% calf serum +5% Nuserum.
(c) number of cells based on 2000 CX-1 cells/well and 1000 CV-1 cells/well. NOTE: Always make enough cell suspension for 1 extra plate to allow for volume loss during transfers.
• (a) For CV-1: 256 ug/ml-256 ul of 1 mg/ml stock +744 ul DMSO • (b) For CX-1: 25.6 ug/ml-100 ul of 256 ug/ml+900 ul DMSO IV. Treatment • 1. Each plate is treated with 4 test compounds, one positive control and one negative control. • 2. Serial dilutions of the compounds are made in the following way:
2 multi-well pipetters are used. One is set for 10 ul and one for 200 ul. Each is equipped with 6 tips spaced such that they fit into the 6 rows of a plate. 390 ul of media is added to the first column of each plate. 10 ul each of 4 compound solutions, a positive and a negative control are taken up and put into the first column of wells. The 200 ul pipetter is then placed in the same wells, pipetted up and down 3 times and two 200 ul aliquots are moved to the next column of wells. This column is pipetted up and down 3 times and 400 ul moved to column 3, etc. The final 400 ul excess from column 8 is discarded.
• 3. Label the plates along the front, each row −1 compound. • 4. Incubate the plates at 37° C. for 3 hrs. V. Rinsing • 1. Prepare several bottles of CX-1 and CV-1 media. • 2. Check for precipitate in first column of each plate and note. • 3. Starting with the plates treated first, rinse several plates at a time by aspirating the treatments and refilling each well with 0.5-1.0 ml of the rinse media. Aspirate and refill 2 more times for a total of 3 rinses. • 4.

Where [1] appears, read: Table XVI, selectivity ratio of IC50 values.
Where [2] appears, read: Table XXI, oxathiacarbocyanine nitrogen substituents.
Where [3] appears, read: listed as drawing 41|Et|5-Cl|5-Cl.

The structures appear in SMILES notation. A value given as a limit tells only on which side of the number the result lay.

For the compound `CC[n+]1c(/C=C/C=C2\Sc3ccc4ccccc4c3N2C)sc2ccccc21` [naphtho/1,2/thiazole (R=E/M)], under “Table XVI, unsymmetrical dyes”, the CX worked out at 0.300. Besides, under setting [1], the CV/CX turned out to be 13.3.
As for `CCN1/C(=C/C=C/c2sc3ccccc3[n+]2CC)C(C)(C)c2ccccc21` [3H-indole (3,3-Me)], the CX (Table XVI, unsymmetrical dyes) turned out to be 0.16. Also, the CV/CX under setting [1] stood at 0.3.
Compound `CCN1/C(=C/C=C/c2sc3ccccc3[n+]2CCC(=O)N(c2ccccc2)C(C)C)Oc2ccccc21` [R1=CCC(═O)N(iPr)Ph, R2=Et] displayed a CX under setting [2] of 0.03. Besides, the CV/C (Table XXI) was determined as 26.7.
As for `CCN1/C(=C/C=C/c2sc3cc(C#N)ccc3[n+]2C)Sc2ccccc21` [drawing 41|M/E|6-CN|H], the “CX (IC50 in the CX-1 cell line)” value came out at 0.16 µg/mL and the “CV/CX (selectivity, kill ratio)” value is 20.0.
Consider `CCN(CC)CCN1/C(=C/C=C/c2oc3ccccc3[n+]2CC)Sc2ccccc21.I.[I-]` [Dye D-116], for which the “CV/CX (selectivity, kill ratio)” value was 80.
For the compound `CCN1/C(=C/C(=C/c2[te]c3ccc(C)cc3[n+]2CC)c2ccccc2)Sc2ccccc21` [R=E, X=S, Z1=5-Me, R2=Ph, Z2=H], the CX (Table XVII, benzotellurazole derivatives) amounted to 0.3. The CV/CX (Table XVII, selectivity ratio of IC50 values) turned out to be 30.0.
On to `CCN1/C(=C/C=C/c2sc3cc(OC)c(OC)cc3[n+]2CC)Oc2ccccc21` [drawing 44|E|5,6-MeO|H], for which the “CV/CX (selectivity, kill ratio)” value turned out to be 12.5.
Compound `CCN1C=CC(=C/C=C/c2sc3ccccc3[n+]2CC)c2ccsc21` [4-thieno/2,3-b/pyridine] displayed a CX (Table XVI, unsymmetrical dyes) of 0.04. For the same compound, the CV/CX under setting [1] was 5.0.
Turning to `CCN1C(=CC=Cc2oc3ccccc3[n+]2CC)Oc2ccccc21` [drawing 45|H|H], the “CX (IC50 in the CX-1 cell line)” value stood at 0.10 µg/mL and the “CV/CX (selectivity, kill ratio)” value worked out at 30.0.
`CCN1C=C(c2ccccc2)SC1=CC=Cc1sc2ccccc2[n+]1CC` [Dye 5-Ph-thiazole]: the CX (Table XVI, unsymmetrical dyes) is recorded as 0.03. Further, the CV/CX under setting [1] was 16.7.
For the compound `CCN1C(=CC=Cc2oc3ccc(F)cc3[n+]2CC)Oc2ccc(F)cc21` [drawing 45|5-F|5-F], the “CX (IC50 in the CX-1 cell line)” value is “>.32 µg/mL” and the “CV/CX (selectivity, kill ratio)” value stood at 10.0.
Turning to `OCCN1/C(=C/C=C/c2sc3ccccc3[n+]2CCO)Sc2ccccc21` [R1=CCOH, R2=CCOH], under “Table XX, thiacarbocyanine nitrogen substituents”, the CX was over 0.32. Also, the CV/CX (Table XX, ratio given a value of 1 where dye inactive) was 1.0.
Take `CC[n+]1c(/C=C(/C=C2\Sc3ccccc3N2C)Sc2ccccc2)sc2ccccc21` [drawing 38|E/M|H|SPh|H]: the “CX (IC50 in the CX-1 cell line)” value worked out at 0.07 µg/mL and the “CV/CX (selectivity, kill ratio)” value is on record as 10.0.
For the compound `CN1/C(=C/C=C/c2sc3ccccc3[n+]2C)Sc2ccc3ccccc3c21` [naphtho/1,2/thiazole (R=M)], the CX (Table XVI, unsymmetrical dyes) was under 0.005. Moreover, the CV/CX under setting [1] came to 10.0.
On to `CCN1/C(=C/C=C/c2sc3cc(O)c(O)cc3[n+]2CC)Oc2ccccc21` [drawing 44|E|5,6-OH|H], for which the “CV/CX (selectivity, kill ratio)” value turned out to be 8.0.
In turn, `CCN1/C(=C/C=C/c2sc3ccccc3[n+]2CC(=O)N2CCOCC2)Oc2ccccc21` [R1=CC(═0)morpholino, R2=Et] yielded a CX under setting [2] of over 1.0. In addition, the CV/C (Table XXI) came to 1.0.
On to `CC[n+]1c(/C=C/C=C2\Oc3ccccc3N2CC(=O)c2ccccc2)sc2ccccc21` [drawing 37|Et|C(C═O)Ph], for which the “CX (IC50 in the CX-1 cell line)” value worked out at 0.8 µg/mL and the “CV/CX (selectivity, kill ratio)” value is 3.7.
Turning to `COc1cccc2c3c(ccc12)S/C(=C\C=C\c1sc2ccc4c(OC)cccc4c2[n+]1C)N3C` [drawing 43|M|6-MeO|6-MeO], the “CX (IC50 in the CX-1 cell line)” value came out at 0.08 µg/mL and the “CV/CX (selectivity, kill ratio)” value is 10.0.
`CCN1C(=CC=Cc2oc3ccccc3[n+]2CC)Oc2ccccc21` [Dye B-400]: the CX (Table XV, symmetrical dyes) is on record as 0.10. Moreover, under “Table XV, selectivity ratio of IC50 values”, the CV/CX came to 30.0.
As for `CCN(CC)C(=O)C[n+]1c(/C=C/C=C2\Oc3ccccc3N2CC)sc2ccccc21` [R1=CC(═0)N(Et)2, R2=Et], under setting [2], the CX was determined as 0.3. In addition, the CV/C (Table XXI) was over 33.3.
`CCN1C(=CC(C)=Cc2sc3ccccc3[n+]2CC)Oc2ccccc21` [drawing 39|E|H|Me]: the “CX (IC50 in the CX-1 cell line)” value amounted to 0.05 µg/mL and the “CV/CX (selectivity, kill ratio)” value amounted to 20.0.
Turning to `CCN1/C(=C/C=C/c2sc3ccccc3[n+]2CC(=O)c2ccccc2)Oc2ccccc21` [drawing 37|CC(═O)Ph|Et], the “CX (IC50 in the CX-1 cell line)” value was 0.3 µg/mL and the “CV/CX (selectivity, kill ratio)” value turned out to be 10.0.
As for `CCN1C(=C/C=C/c2sc3ccccc3[n+]2C)C=Cc2ccccc21` [Dye 2-quinoline], where the note is “Table XVI, unsymmetrical dyes”, the CX was under 0.005. Also, under setting [1], the CV/CX is given as over 20.0.
Take `CCN1/C(=C/C=C/c2sc3ccccc3[n+]2CC)Oc2ccc(NS(=O)(=O)c3ccccc3)cc21` [drawing 44|E|H|5-NHSO2Ph]: the “CV/CX (selectivity, kill ratio)” value is recorded as 16.7.
With `CCN1/C(=C/C=C/c2sc3ccccc3[n+]2CC(N)=O)Oc2ccccc21` [R1=CC(═O)N, R2=Et], where the note is “Table XXI”, the CV/C was over 10.0.
In the case of `CCN1C(=CC=Cc2sc3ccc(Cl)cc3[n+]2CC)Sc2ccc(Cl)cc21` [drawing 41|ET|5-Cl|5-Cl], the “CX (IC50 in the CX-1 cell line)” value turned out to be 0.04 µg/mL and the “CV/CX (selectivity, kill ratio)” value turned out to be 40.0. Under setting [3], the “CX (IC50 in the CX-1 cell line)” value is 0.30 µg/mL and the “CV/CX (selectivity, kill ratio)” value worked out at 16.7.
In the case of `CCN1C(=CC(=Cc2sc3ccccc3[n+]2CC)CSC(C)=O)Oc2ccccc21` [drawing 39|E|H|CSC(═O)C], the “CX (IC50 in the CX-1 cell line)” value is 0.03 µg/mL and the “CV/CX (selectivity, kill ratio)” value was found to be 33.3.
On the same counts, the results for `CSC(=Cc1sc2ccccc2[n+]1C)C=C1Sc2ccccc2N1C` [drawing 38|M|H|SMe|H] are 0.015 µg/mL and 26.6.
Consider `CCC(=Cc1sc2ccccc2[n+]1C)C=C1Sc2ccccc2N1C` [drawing 38|M|H|Et|H], for which the “CV/CX (selectivity, kill ratio)” value was determined as 14.0.
On to `C=C(Br)C[n+]1c(/C=C/C=C2\Oc3ccccc3N2CC)sc2ccccc21` [drawing 37|CC(Br)═C|Et], for which the “CX (IC50 in the CX-1 cell line)” value was 0.03 µg/mL and the “CV/CX (selectivity, kill ratio)” value was 33.3.
Consider `CCN1C(=CC=Cc2sc3ccccc3[n+]2CC)Sc2cc3ccccc3cc21` [naphtho/2,3/thiazole], for which the CX (Table XVI, unsymmetrical dyes) is recorded as 0.007. Also, under setting [1], the CV/CX came out at 57.0.
Take `CCN1/C(=C\C=C\c2[se]c3ccccc3[n+]2CC)Sc2cc(O)c(O)cc21` [drawing 46|Se|S|H|5,6-OH]: the “CX (IC50 in the CX-1 cell line)” value was 0.30 µg/mL and the “CV/CX (selectivity, kill ratio)” value was 33.3.
On the same counts, the results for `C(/C=C/c1sc2cccc3c2[n+]1CCC3)=C1/Sc2cccc3c2N1CCC3` [Dye D-102] are under 0.005 µg/mL and 160.
In the case of `CCN1C(=CC=Cc2sc3cc(O)c(O)cc3[n+]2CC)Oc2ccccc21` [drawing 46|S|O|5,6-OH|H], the “CV/CX (selectivity, kill ratio)” value stood at 8.0.
`CCN1/C(=C/C=C/c2sc3ccccc3[n+]2CC(=O)N2CCOCC2)Oc2ccccc21` [drawing 37|CC(═O)morpholino|Et]: the “CX (IC50 in the CX-1 cell line)” value is over 1.0 µg/mL and the “CV/CX (selectivity, kill ratio)” value was 10.0.
